Measured values as given in the Kinase Knowledgebase extract (Sharma et al. 2016).

Biological target: PIK3CG (human) (UniProt P48736)
Assay: Assessment of PIK3CG Kinase Activity

Chain of PIK3CG (human) (P48736 whole entry, looked up): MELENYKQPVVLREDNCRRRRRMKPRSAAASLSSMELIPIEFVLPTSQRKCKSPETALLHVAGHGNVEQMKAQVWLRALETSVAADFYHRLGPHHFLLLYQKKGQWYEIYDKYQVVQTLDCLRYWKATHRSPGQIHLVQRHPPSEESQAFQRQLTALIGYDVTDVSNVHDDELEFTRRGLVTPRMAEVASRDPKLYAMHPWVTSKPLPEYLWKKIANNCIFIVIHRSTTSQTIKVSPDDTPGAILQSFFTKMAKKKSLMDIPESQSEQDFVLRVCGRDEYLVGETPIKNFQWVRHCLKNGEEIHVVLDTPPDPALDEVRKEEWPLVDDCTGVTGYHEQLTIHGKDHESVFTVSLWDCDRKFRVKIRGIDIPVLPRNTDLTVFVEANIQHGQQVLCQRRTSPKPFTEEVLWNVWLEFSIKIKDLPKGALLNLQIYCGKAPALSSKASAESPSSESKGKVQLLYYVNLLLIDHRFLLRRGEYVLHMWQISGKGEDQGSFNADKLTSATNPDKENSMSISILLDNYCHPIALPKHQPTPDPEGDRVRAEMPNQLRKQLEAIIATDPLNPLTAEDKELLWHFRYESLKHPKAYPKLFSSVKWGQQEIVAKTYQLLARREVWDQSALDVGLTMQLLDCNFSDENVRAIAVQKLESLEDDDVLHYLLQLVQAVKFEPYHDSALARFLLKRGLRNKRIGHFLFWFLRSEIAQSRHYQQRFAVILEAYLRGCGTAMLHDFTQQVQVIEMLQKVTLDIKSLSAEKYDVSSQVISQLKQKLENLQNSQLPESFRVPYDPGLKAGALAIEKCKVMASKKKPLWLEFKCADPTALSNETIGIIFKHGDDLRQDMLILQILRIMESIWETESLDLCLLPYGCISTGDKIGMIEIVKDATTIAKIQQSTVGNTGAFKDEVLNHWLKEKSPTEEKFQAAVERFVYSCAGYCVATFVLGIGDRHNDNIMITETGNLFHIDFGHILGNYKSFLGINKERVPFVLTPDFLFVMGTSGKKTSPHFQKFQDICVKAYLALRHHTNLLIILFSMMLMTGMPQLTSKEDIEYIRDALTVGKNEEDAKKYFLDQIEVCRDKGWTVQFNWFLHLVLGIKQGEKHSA

SMILES	Ki [nM]
Cc1nc(NC(=O)NCCOc2ccccc2F)sc1C#Cc1ccncc1	< 50
Cc1nc(NC(=O)NCCn2nnc3ccccc32)sc1C#Cc1ccncc1	50 to 250
CCc1cnc(CCNC(=O)Nc2nc(C)c(C#Cc3ccncc3)s2)s1	< 50
Cc1nc(NC(=O)NCCc2cccnc2)sc1C#Cc1ccncc1	< 50
Cc1nc(NC(=O)NC[C@H](C)O)sc1C#Cc1ccncc1	< 50
Cc1nc(NC(=O)NCCc2nccs2)sc1C#Cc1ccncc1	50 to 250
CCc1ccc(OCCNC(=O)Nc2nc(C)c(C#Cc3ccncc3)s2)cc1	50 to 250
CCc1cnc(CCNC(=O)Nc2nc(C)c(C#Cc3cncc(OC)c3)s2)s1	< 50
Cc1nc(NC(=O)NCCOCC2CC2)sc1C#Cc1ccnc2ccccc12	< 50
COc1cc(C#Cc2sc(NC(=O)NCCOCC3CC3)nc2C)cnc1OC	< 50
CC(=O)Nc1nc(C)c(C#Cc2cccc(C)c2)s1	50 to 250
CC(=O)Nc1nc(C)c(C#Cc2cncn2C)s1	50 to 250
Cc1nc(NC(=O)NCCC(=O)OC(C)(C)C)sc1C#Cc1ccccc1	< 50
COc1ccc(CNC(=O)Nc2nc(C)c(C#Cc3ccncc3)s2)cc1	< 50
Cc1nc(NC(=O)NCCC(=O)NCC(F)(F)F)sc1C#Cc1ccncc1	< 50
Cc1nc(NC(=O)CCCC(=O)NCC(F)F)sc1C#Cc1ccncc1	50 to 250
Cc1nc(NC(=O)NCCOCC2CC2)sc1C#Cc1cccnc1	< 50
Cc1nc(NC(=O)NCCc2cn(C(C)C)cn2)sc1C#Cc1ccncc1	< 50

The next lines start with the values.

Ki [nM]	SMILES
50 to 250	Cc1nc(NC(=O)COCc2ccccc2)sc1C#Cc1ccncc1
< 50	CCn1cnc(CCNC(=O)Nc2nc(C)c(C#Cc3ccncc3)s2)c1Cl
< 50	CC(=O)Nc1nc(C)c(C#Cc2ccncc2)s1
50 to 250	Cc1nc(NC(=O)NCCCOCC(F)(F)F)sc1C#Cc1ccncc1
50 to 250	CC(=O)Nc1nc(C)c(C#Cc2sc(NC(=O)NCCOCC3CC3)nc2C)s1
50 to 250	Cc1nc(NC(=O)NCCOCC2CC2)sc1C#Cc1cnc(Cl)c(F)c1
50 to 250	Cc1nc(NC(=O)NCCOCC2CC2)sc1C#Cc1cncn1C
50 to 250	Cc1nc(NC(=O)NCCOCC2CC2)sc1C#Cc1ccc(Cl)nc1
50 to 250	COc1cc(C#Cc2sc(NC(=O)NCCOCC3CC3)nc2C)cnc1Cl
< 50	Cc1nc(NC(=O)NCC2CCCCO2)sc1C#Cc1ccncc1 (stereo unspecified)
< 50	Cc1nc(NC(=O)NCCOCC2CC2)sc1C#Cc1ccnc(F)c1
50 to 250	Cc1nc(NC(=O)NCCOc2cccnc2)sc1C#Cc1ccnc(Cl)c1
< 50	COc1cncc(C#Cc2sc(NC(C)=O)nc2C)c1
